In US4068070A, “α-Cyanoamine compounds and a process for producing the same” (Fuji Chemical Industry Co., Ltd., priority 1974, dated 1978):

How the values were obtained:
Assay type in all cases: in vivo, mongrel adult dogs
[1] = test system: arterial mean blood pressure; experiment: Effects on arterial mean blood pressure
Outline: (§1)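 Readouts: aortic pressure by transducer through carotid cannula, aortic root flow electromagnetically, coronary sinus flow and oxygen tension through Morawitz cannulation. Subjects were anesthetized (pentobarbital) open-chest adult mongrel dogs of either sex given intravenous test compound or active placebo.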

[2] = test system: aortic blood flow; experiment: Effects on aortic blood flow
Outline: as §1

[3] = test system: coronary sinus oxygen tension; experiment: Effects on coronary sinus oxygen tension
Outline: as §1

In the case of `COc1ccc(C(C#N)N2CCN(CC=Cc3ccccc3)CC2)cc1OC` (stereo not shown) [Compound D], the “Changes (%) of basal values, arterial mean blood pressure” value ([1]; 6.0 mg/kg i.v., 30 min) is reported as -3.0%, the “Changes (%) of basal values, arterial mean blood pressure” value ([1]; 6.0 mg/kg i.v., 40 min) is reported as -1.0% and the “Changes (%) of basal values, arterial mean blood pressure” value ([1]; 6.0 mg/kg i.v., imm.) is reported as -36.1%. The “Changes (%) of basal values, arterial mean blood pressure” value ([1]; 20.0 mg/kg i.v., 1 min) was -19.7%, the “Changes (%) of basal values, arterial mean blood pressure” value ([1]; 20.0 mg/kg i.v., 5 min) was -14.4% and the “Changes (%) of basal values, arterial mean blood pressure” value ([1]; 20.0 mg/kg i.v., 10 min) was -13.5%. The “Changes (%) of basal values, arterial mean blood pressure” value ([1]; 20.0 mg/kg i.v., 20 min) was -8.3%, the “Changes (%) of basal values, arterial mean blood pressure” value ([1]; 20.0 mg/kg i.v., 30 min) was -5.1% and the “Changes (%) of basal values, arterial mean blood pressure” value ([1]; 20.0 mg/kg i.v., 40 min) was -3.1%. For the same compound, the “Changes (%) of basal values, arterial mean blood pressure” value ([1]; 20.0 mg/kg i.v., imm.) was -45.0%, the “Effects on arterial mean blood pressure (in words)” value ([1]; i.v., anesthetized dogs) was “hypotensive effects being proportioned to their doses which were of long duration” and the “Changes (%) of basal values, aortic blood flow” value (shortened to “Changes (%) … aortic blood flow”) ([2]; 2.0 mg/kg i.v., 1 min) was “+3.3%”. For the same compound, the “Changes (%) … aortic blood flow” value ([2]; 2.0 mg/kg i.v., 5 min) was -0.8%, the “Changes (%) … aortic blood flow” value ([2]; 2.0 mg/kg i.v., 10 min) was 0% and the “Changes (%) … aortic blood flow” value ([2]; 2.0 mg/kg i.v., 20 min) was 0%. The “Changes (%) … aortic blood flow” value ([2]; 2.0 mg/kg i.v., 30 min) was 0%, the “Changes (%) … aortic blood flow” value ([2]; 2.0 mg/kg i.v., 40 min) was 0% and the “Changes (%) … aortic blood flow” value ([2]; 2.0 mg/kg i.v., imm.) was “+8.3%”. The “Changes (%) … aortic blood flow” value ([2]; 6.0 mg/kg i.v., 1 min) was “+3.3%”, the “Changes (%) … aortic blood flow” value ([2]; 6.0 mg/kg i.v., 5 min) was -2.7% and the “Changes (%) … aortic blood flow” value ([2]; 6.0 mg/kg i.v., 10 min) was “+0.7%”. The “Changes (%) … aortic blood flow” value ([2]; 6.0 mg/kg i.v., 20 min) was “+0.5%”, the “Changes (%) … aortic blood flow” value ([2]; 6.0 mg/kg i.v., 30 min) was 0% and the “Changes (%) … aortic blood flow” value ([2]; 6.0 mg/kg i.v., 40 min) was 0%. The “Changes (%) … aortic blood flow” value ([2]; 6.0 mg/kg i.v., imm.) was “+12.0%”, the “Changes (%) … aortic blood flow” value ([2]; 20.0 mg/kg i.v., 1 min) was “+16.3%” and the “Changes (%) … aortic blood flow” value ([2]; 20.0 mg/kg i.v., 5 min) was -3.8%. For the same compound, the “Changes (%) … aortic blood flow” value ([2]; 20.0 mg/kg i.v., 10 min) was -4.0%, the “Changes (%) … aortic blood flow” value ([2]; 20.0 mg/kg i.v., 20 min) was -3.4% and the “Changes (%) … aortic blood flow” value ([2]; 20.0 mg/kg i.v., 30 min) was -1.8%. For the same compound, the “Changes (%) … aortic blood flow” value ([2]; 20.0 mg/kg i.v., 40 min) was -0.3%, the “Changes (%) … aortic blood flow” value ([2]; 20.0 mg/kg i.v., imm.) was “+27.4%” and the “Effects on aortic blood flow (in words)” value ([2]; i.v., anesthetized dogs) was “an increase in blood flow immediately after administration, followed by a decrease in blood flow”. For the same compound, the “Changes(%) of basal values, coronary sinus oxygen tension” value (shortened to “Changes(%) of basal values”) ([3]; 2.0 mg/kg i.v., 1 min) was “+2.7%”, the “Changes(%) of basal values” value ([3]; 2.0 mg/kg i.v., 5 min) was “+0.5%” and the “Changes(%) of basal values” value ([3]; 2.0 mg/kg i.v., 10 min) was -1.0%. The “Changes(%) of basal values” value ([3]; 2.0 mg/kg i.v., 20 min) was -0.5%, the “Changes(%) of basal values” value ([3]; 2.0 mg/kg i.v., 30 min) was 0% and the “Changes(%) of basal values” value ([3]; 2.0 mg/kg i.v., 40 min) was 0%. For the same compound, the “Changes(%) of basal values” value ([3]; 2.0 mg/kg i.v., imm.) was “+6.7%”, the “Changes(%) of basal values” value ([3]; 6.0 mg/kg i.v., 1 min) was “+14.0%” and the “Changes(%) of basal values” value ([3]; 6.0 mg/kg i.v., 5 min) was “+5.8%”. For the same compound, the “Changes(%) of basal values” value ([3]; 6.0 mg/kg i.v., 10 min) was “+1.0%”, the “Changes(%) of basal values” value ([3]; 6.0 mg/kg i.v., 20 min) was -1.0% and the “Changes(%) of basal values” value ([3]; 6.0 mg/kg i.v., 30 min) was 0%. For the same compound, the “Changes(%) of basal values” value ([3]; 6.0 mg/kg i.v., 40 min) was 0%, the “Changes(%) of basal values” value ([3]; 6.0 mg/kg i.v., imm.) was “+23.8%” and the “Changes(%) of basal values” value ([3]; 20.0 mg/kg i.v., 1 min) was “+43.8%”. The “Changes(%) of basal values” value ([3]; 20.0 mg/kg i.v., 5 min) was -21.2%, the “Changes(%) of basal values” value ([3]; 20.0 mg/kg i.v., 10 min) was “+8.4%” and the “Changes(%) of basal values” value ([3]; 20.0 mg/kg i.v., 20 min) was “+3.2%”. The “Changes(%) of basal values” value ([3]; 20.0 mg/kg i.v., 30 min) was “+2.0%”, the “Changes(%) of basal values” value ([3]; 20.0 mg/kg i.v., 40 min) was “+0.2%” and the “Changes(%) of basal values” value ([3]; 20.0 mg/kg i.v., imm.) was “+60.3%”. The “Effects on coronary sinus oxygen tension (in words)” value ([3]; i.v., anesthetized dogs) was “a significant increase in coronary sinus oxygen tension, effect of which was of long duration”.
